This note sets out measurements from patent US20170114049A1, “2,5-DISUBSTITUTED CYCLOPENTANE CARBOXYLIC ACIDS FOR THE TREATMENT OF RESPIRATORY TRACT DISEASES” (BAYER PHARMA AKTIENGESELLSCHAFT, priority 2014, published 2017).

A word on the solubility: it is how much of the substance goes into solution per volume. Read a low solubility as little dissolved substance. Usually Solubility stands for the concentration that dissolves in the medium under given conditions.

Values after ≈ are worked out from the molar mass of the structure shown. Read-outs that look alike come from different tables or passages of the source.

The target in data set [1] is T1, human macrophage elastase (HME/hMMP-12) (Homo sapiens, UniProt P39900).
T1 construct: 0.5 nM HME; purchased R&D Systems 917-MP
Put plainly: In vitro HME inhibition test (standard or high-sensitivity). It is filed as biochemical. As to the method: The potency of the compounds according to the invention with respect to HME (MMP-12) is determined in an in vitro inhibition test. The HME-mediated amidolytic cleavage of a suitable peptide substrate leads to an increase in fluorescent light therein. The signal intensity of the fluorescent light is directly proportional to the enzyme activity. The active concentration of a test compound at which half the enzyme is inhibited (50% signal intensity of the fluorescent light) is reported as the IC50 value.
In a 384 hole microtiter plate, in a total test volume of 41 μl, the test buffer (0.1 M HEPES pH 7.4, 0.15 M NaCl, 0.03 M CaCl2, 0.004 mM ZnCl2, 0.02 M EDTA, 0.005% Brij®), the enzyme (0.5 nM HME; from R&D Systems, 917-MP, autocatalytic activation according to the manufacturer's instructions) and the intramolecularly quenched substrate [5 μM Mca-Pro-Leu-Gly-Leu-Glu-Glu-Ala-Dap(Dnp)-NH2; Bachem, M-2670] are incubated in the absence and presence of the test substance (as a solution in DMSO) at 37° C. for two hours. The fluorescence intensity of the test mixtures is measured (excitation […], emission 393 nm). The IC50 values are ascertained by plotting the fluorescent light intensity against the active ingredient concentration.
In this case, an enzyme concentration ten times lower is used (final concentration, for example, 0.05 nM) in order to achieve an elevated test sensitivity. The incubation period chosen for the test is correspondingly longer (for example 16 hours).

In a further data set the target is T2, MMP-3 (Homo sapiens, UniProt P08254).
T2 construct: purchased R&D Systems 513-MP
Nature of the data set: In vitro MMP-3 inhibition test. The class given is biochemical. The text has this: (§1) The MMP-mediated amidolytic cleavage of a suitable peptide substrate leads to an increase in fluorescent light here too. The signal intensity of the fluorescent light is directly proportional to the enzyme activity. The active concentration of a test compound at which half the enzyme is inhibited (50% signal intensity of the fluorescent light) is reported as the […].
(§2) Recombinant MMP-3 (from R&D Systems, 513-MP) is chemically activated in accordance with the manufacturer's instructions using APMA. 1 μl of the test compound to be analysed (as a solution in DMSO, suitable concentrations, for example, 1 nM to 30 μM) is pipetted into 24 μl of activated enzyme (final concentration, for example, 2 nM) in reaction buffer (50 mM Tris/HCl pH 7.5, 10 mM CaCl2, 150 mM NaCl, 0.05% Brij®-35) in a white 384-hole microtiter plate (MTP). The enzymatic reaction is started by adding the intramolecularly quenched Mca-Arg-Pro-Lys-Pro-Val-Glu-Nval-Trp-Arg-Lys(Dnp)-NH2 substrate (final concentration, for example, 10 μM; R&D Systems, ES-002), so as to result in a total test volume of 50 μl. The course of the MMP-3 reaction is measured by measuring the fluorescence intensity (excitation 320 nm, emission 410 nm) over a suitable period of time (for example over 120 min at a temperature of 32° C.).

The target in the next data set is T3, MMP-7 (Homo sapiens, UniProt P09237).
T3 construct: purchased R&D Systems 907-MP
T3 sequence (P09237 95-267): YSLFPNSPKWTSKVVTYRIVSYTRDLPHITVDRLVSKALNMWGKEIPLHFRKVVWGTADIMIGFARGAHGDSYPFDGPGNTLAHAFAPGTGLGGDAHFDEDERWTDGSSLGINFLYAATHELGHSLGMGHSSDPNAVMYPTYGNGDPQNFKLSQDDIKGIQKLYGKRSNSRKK
Nature of the data set: In vitro MMP-7 inhibition test. The class given is biochemical.
From the text: as §1
as §2, with “Recombinant MMP-7” for “Recombinant MMP-3”, “Systems, 907-MP)” for “Systems, 513-MP)”, “example, 0.5” for “example, 2”, “quenched Mca-Pro-Leu-Gly-Leu-Dpa(Dnp)-Ala-Arg-NH2” for “quenched Mca-Arg-Pro-Lys-Pro-Val-Glu-Nval-Trp-Arg-Lys(Dnp)-NH2”, “Systems, ES-001),” for “Systems, ES-002),”, “the MMP-7” for “the MMP-3”

The next data set concerns the target T4, MMP-9 (Homo sapiens, UniProt P14780).
T4 construct: purchased R&D Systems 911-MP
Put plainly: In vitro MMP-9 inhibition test. It is filed as biochemical.

Data set [2] is described as follows: Determination of solubility in PBS buffer pH 6.5. As to conditions: PBS buffer pH 6.5, 1% DMSO, room temperature; for solubility at 24 h: PBS buffer, pH 6.5, aqueous buffer, kinetic from dmso stock.
Procedure: The test substance is dissolved in DMSO. An aliquot is taken from this solution and introduced into PBS buffer pH 6.5 (DMSO content: 1%). This solution/suspension is agitated at room temperature for 24 h. After ultracentrifugation at 114000 g for 30 min, the supernatant is removed, diluted with acetonitrile/water 8:2 and analysed by LC-MSMS. Quantification is effected by means of a five-point calibration curve of the test compound in DMSO.
[3] abbreviates: absence of serum albumin (BSA), read-out: HME IC50 (−BSA).
Setting [4] is: standard or high-sensitivity HME inhibition test, read-out: HME/hMMP-12 IC50.

T1 sequence (P39900 106-470): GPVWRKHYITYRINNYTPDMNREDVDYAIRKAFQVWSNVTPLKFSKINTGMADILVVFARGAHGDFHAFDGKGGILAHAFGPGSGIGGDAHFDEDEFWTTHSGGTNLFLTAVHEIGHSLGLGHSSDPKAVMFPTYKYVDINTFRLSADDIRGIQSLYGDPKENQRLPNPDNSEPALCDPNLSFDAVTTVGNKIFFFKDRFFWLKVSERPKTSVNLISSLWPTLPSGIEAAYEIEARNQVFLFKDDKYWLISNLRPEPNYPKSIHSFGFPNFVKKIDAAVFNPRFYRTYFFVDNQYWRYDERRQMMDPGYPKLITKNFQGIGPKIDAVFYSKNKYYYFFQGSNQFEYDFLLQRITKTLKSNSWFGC
T4 sequence (P14780 107-707 limits assumed): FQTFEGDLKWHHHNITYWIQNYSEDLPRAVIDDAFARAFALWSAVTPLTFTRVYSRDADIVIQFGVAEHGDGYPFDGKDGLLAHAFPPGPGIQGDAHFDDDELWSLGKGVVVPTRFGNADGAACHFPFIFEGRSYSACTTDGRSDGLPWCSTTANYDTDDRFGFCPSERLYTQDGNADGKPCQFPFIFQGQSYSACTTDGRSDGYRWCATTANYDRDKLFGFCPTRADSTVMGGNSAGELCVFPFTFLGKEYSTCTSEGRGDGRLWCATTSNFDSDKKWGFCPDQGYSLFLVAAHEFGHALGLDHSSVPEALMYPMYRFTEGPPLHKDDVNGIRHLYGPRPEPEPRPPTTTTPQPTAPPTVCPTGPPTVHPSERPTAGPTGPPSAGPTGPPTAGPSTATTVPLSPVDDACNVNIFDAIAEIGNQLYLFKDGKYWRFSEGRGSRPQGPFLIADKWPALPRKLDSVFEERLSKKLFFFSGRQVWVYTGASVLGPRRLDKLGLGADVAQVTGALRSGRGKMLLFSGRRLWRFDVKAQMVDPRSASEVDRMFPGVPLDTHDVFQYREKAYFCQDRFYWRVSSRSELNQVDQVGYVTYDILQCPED
T2 sequence (P08254 100-477): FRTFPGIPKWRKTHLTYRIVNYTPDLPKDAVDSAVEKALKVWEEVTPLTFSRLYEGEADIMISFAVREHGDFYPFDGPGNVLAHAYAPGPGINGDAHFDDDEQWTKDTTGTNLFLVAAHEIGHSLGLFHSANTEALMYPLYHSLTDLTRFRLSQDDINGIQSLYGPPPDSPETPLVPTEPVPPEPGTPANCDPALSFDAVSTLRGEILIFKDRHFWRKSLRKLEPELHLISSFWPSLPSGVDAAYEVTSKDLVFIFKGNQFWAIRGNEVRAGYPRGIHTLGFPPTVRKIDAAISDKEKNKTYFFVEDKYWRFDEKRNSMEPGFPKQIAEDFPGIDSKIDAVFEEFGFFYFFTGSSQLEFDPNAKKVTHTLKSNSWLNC

Take `Cc1ccc2nnn(C[C@@H]3CC[C@H](C(=O)c4ccc(OCCC5CCOCC5)cc4)[C@H]3C(=O)O)c(=O)c2c1` (racemic) [Example 19, (+/−)-(1RS,2SR,5RS)-2-[(6-Methyl-4-oxo-1,2,3-benzotriazin-3(4H)-yl)methyl]-5-{4-[2-(letrahydro-2H-pyran-4-yl)ethoxy]benzoyl}cyclopentanecarboxylic acid]: the IC50 was found to be 0.12 nM in data set [1] (setting [3]); 0.12 nM in data set [1] (setting [4]); 1400 nM at MMP-3; 1100 nM on MMP-7; 960 nM against MMP-9. Also, the solubility at 24 h in data set [2] came to 17 µg/mL (≈ 32.7 µM).

`O=C(O)[C@H]1[C@H](Cn2nnc3ccccc3c2=O)CC[C@@H]1C(=O)c1ccc(OCCC2CCOCC2)cc1` (stereo in doubt) [Example 4, (+/−)-(1RS,2SR,5RS)-2-[(4-Oxo-1,2,3-benzotriazin-3(4H)-yl)methyl]-5-{4-[2-(tetrahydro-2H-pyran-4-yl)ethoxy]benzoyl}cyclopentanecarboxylic acid]: the IC50 in data set [1] (setting [3]) is 0.37 nM; in data set [1] (setting [4]), 0.37 nM; at MMP-7, 3200 nM; against MMP-9, 5000 nM. The same compound yielded a solubility at 24 h in data set [2] of 51.4 µg/mL (≈ 102 µM).

`O=C(O)[C@H]1[C@H](Cn2nnc3ccc(C(F)(F)F)cc3c2=O)CC[C@@H]1C(=O)c1ccc(OCC2CCOCC2)cc1` (racemic) [Example 7, (+/−)-(1RS,2SR,5RS)-2-{[4-Oxo-6-(trifluoromethyl)-1,2,3-benzotriazin-3(4H)-yl]methyl}-5-[4-(tetrahydro-2H-pyran-4-ylmethoxy)benzoyl]cyclopentanecarboxylic acid]: the IC50 in data set [1] (setting [4]) came out at 0.031 nM; at MMP-3 it was 190 nM; at MMP-7 it was 130 nM; at MMP-9 it was 120 nM.

On to `O=C(O)[C@@H]1[C@@H](Cn2nnc3ccc(C(F)(F)F)cc3c2=O)CC[C@H]1C(=O)c1ccc(OCCC2CCOCC2)cc1` (single isomer, unassigned) [Example 11, (+)-(1RS,2SR,5RS)-2-{[4-Oxo-6-(trifluoromethyl)-1,2,3-benzotriazin-3(4H)-yl]methyl}-5-{4-[2-(tetrahydro-2H-pyran-4-yl)ethoxy]benzoyl}cyclopentanecarboxylic acid], for which the IC50 is 0.19 nM in data set [1] (setting [3]); 0.19 nM in data set [1] (setting [4]); 260 nM at MMP-3; 190 nM against MMP-7; 660 nM at MMP-9. This compound also gave a solubility at 24 h in data set [2] of 210 µg/mL (≈ 366 µM).

Regarding `O=C(O)[C@H]1[C@H](Cn2nnc3ccccc3c2=O)CC[C@@H]1C(=O)c1ccc(OCC2CCOCC2)cc1` (stereo in doubt) [Example 1, (+/−)-(1RS,2SR,5RS)-2-[(4-Oxo-1,2,3-benzotriazin-3(4H)-yl)methyl]-5-[4-(tetrahydro-2H-pyran-4-ylmethoxy)benzoyl]cyclopentanecarboxylic acid], the IC50 in data set [1] (setting [3]) came out at 0.04 nM; in data set [1] (setting [4]), 0.04 nM; on MMP-3, 1100 nM; at MMP-7, 1200 nM; on MMP-9 it was 450 nM. Also, in data set [2], the solubility at 24 h was determined as 52.2 µg/mL (≈ 106 µM).

On to `O=C(O)[C@@H]1[C@@H](Cn2nnc3ccccc3c2=O)CC[C@H]1C(=O)c1ccc(OCC2CCOCC2)cc1` (stereo in doubt) [Example 2, (+)-(1RS,2SR,5RS)-2-[(4-Oxo-1,2,3-benzotriazin-3(4H)-yl)methyl]-5-[4-(tetrahydro-2H-pyran-4-ylmethoxy)benzoyl]cyclopentanecarboxylic acid], for which the IC50 in data set [1] (setting [3]) came out at 0.071 nM; in data set [1] (setting [4]), 0.071 nM; at MMP-3 it was 710 nM; against MMP-7 it was 640 nM; on MMP-9, 360 nM.

As for `Cc1ccc2nnn(C[C@H]3CC[C@@H](C(=O)c4ccc(OCCC5CCOCC5)cc4)[C@@H]3C(=O)O)c(=O)c2c1` (single isomer, unassigned) [Example 20, (+)-(1RS,2SR,5RS)-2-[(6-Methyl-4-oxo-1,2,3-benzotriazin-3(4H)-yl)methyl]-5-{4-[2-(tetrahydro-2H-pyran-4-yl)ethoxy]benzoyl}cyclopentanecarboxylic acid], the IC50 amounted to 0.053 nM in data set [1] (setting [3]); 0.053 nM in data set [1] (setting [4]); 440 nM on MMP-3; 290 nM on MMP-7; 370 nM on MMP-9. For the same compound, in data set [2], the solubility at 24 h came out at 425 µg/mL (≈ 818 µM).

As to `O=C(O)[C@H]1[C@H](Cn2nnc3ccc(C(F)(F)F)cc3c2=O)CC[C@@H]1C(=O)c1ccc(OCCC2CCOCC2)cc1` (stereo in doubt) [Example 10, (+/−)-(1RS ,2S R,5RS)-2-{[4-Oxo-6-(trifluoromethyl)-1,2,3-benzotriazin-3(4H)-yl]methyl}-5-{4-[2-(tetrahydro-2H-pyran-4-yl)ethoxy]benzoyl}cyclopentanecarboxylic acid], the IC50 in data set [1] (setting [4]) came out at 0.021 nM; at MMP-3, 120 nM; against MMP-7, 96 nM; at MMP-9, 310 nM. In data set [2], this compound displayed a solubility at 24 h of 33.4 µg/mL (≈ 58.2 µM).

For “(+)-(1RS,2SR,5RS)-2-{[4-Oxo-6-(trifluoromethyl)-1,2,3-benzotriazin-3(4H)-yl]methyl}-5-[4-(tetra-hydro-2H-pyran-4-ylmethoxy)benzoyl]cyclopentanecarboxylic acid [Example 8]”, the IC50 stood at 0.016 nM in data set [1] (setting [3]); 0.016 nM in data set [1] (setting [4]); 100 nM against MMP-3; 45 nM against MMP-7; 55 nM at MMP-9. For the same compound, in data set [2] (24 h), the Solubility was 4.5 µg/mL.

In the case of `O=C(O)[C@@H]1[C@@H](Cn2nnc3ccccc3c2=O)CC[C@H]1C(=O)c1ccc(OCCC2CCOCC2)cc1` (single isomer, unassigned) [Example 5, (+)-(1RS,2SR,5RS)-2-[(4-Oxo-1,2,3-benzotriazin-3(4H)-yl)methyl]-5-{4-[2-(tetrahydro-2H-pyran-4-yl)ethoxy]benzoyl}cyclopentanecarboxylic acid], the IC50 was determined as 0.085 nM in data set [1] (setting [3]); 0.085 nM in data set [1] (setting [4]); 360 nM at MMP-3; 600 nM against MMP-7; 460 nM against MMP-9. In data set [2], the concentration in solution (solubility at 24 h) was 338 µg/mL (≈ 669 µM).

`O=C(O)[C@@H]1[C@@H](Cn2nnc3ccc(C(F)(F)F)cc3c2=O)CC[C@H]1C(=O)c1ccc(SCC2CCOCC2)cc1` (single isomer, unassigned) [Example 15, (+)-(1RS,2SR,5RS)-2-{[4-Oxo-6-(trifluoromethyl)-1,2,3-benzotriazin-3(4H)-yl]methyl}-5-{4-[(tetrahydro-2H-pyran-4-ylmethyl)sulphanyl]benzoyl}cyclopentanecarboxylic acid]: the IC50 in data set [1] (setting [3]) is 0.026 nM; in data set [1] (setting [4]), 0.026 nM; against MMP-3 it was 95 nM; at MMP-7, 80 nM; on MMP-9, 150 nM.
